According to the supplement of paper PMC10307832:

Tests used:
Assay in all cases: relative viability (nuclei count vs DMSO), 5 days (fraction); higher = more cells survive
[1] = system: NCI-H1651
Outline: (§1)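 One day after seeding in 1536-well plates, lung cancer cell lines were dosed by pin tool. Dosing was either single-drug or a fixed anchor-drug dose plus five library-drug doses (not always all listed) in √10 steps. After 5 days, nuclei were stained in one fix-and-stain step and counted on 4× images, and relative viability is the nuclei count of treated wells over that of vehicle wells, given as the median of duplicate plates.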

[2] = system: CAL-12T
Outline: as §1

[3] = system: NCI-H1623
Outline: as §1

[4] = system: NCI-H1755
Outline: as §1

[5] = system: LK-2
Outline: as §1

[6] = system: A-427
Outline: as §1

[7] = system: A549
Outline: as §1

CN1CCN(CCOc2cc(OC3CCOCC3)c3c(Nc4c(Cl)ccc5c4OCO5)ncnc3c2)CC1 [Saracatinib] + CCNC(=O)c1noc(-c2cc(C(C)C)c(O)cc2O)c1-c1ccc(CN2CCOCC2)cc1 [Luminespib] (partner 0.01 µM)
relative viability ([1]; first compound 0.02 µM): 0.912 | relative viability ([1]; first compound 0.2 µM): 0.516 | relative viability ([1]; first compound 0.6325 µM): 0.965 | relative viability ([1]; first compound 2 µM): 0.837 | relative viability ([2]; first compound 0.02 µM): 0.335 | relative viability ([2]; first compound 0.2 µM): 0.407 | relative viability ([2]; first compound 0.6325 µM): 0.365 | relative viability ([2]; first compound 2 µM): 0.268 | relative viability ([3]; first compound 0.02 µM): 0.527 | relative viability ([3]; first compound 0.2 µM): 0.383 | relative viability ([3]; first compound 0.6325 µM): 0.522 | relative viability ([3]; first compound 2 µM): 0.433 | relative viability ([4]; first compound 0.02 µM): 0.456 | relative viability ([4]; first compound 0.2 µM): 0.329 | relative viability ([4]; first compound 0.6325 µM): 0.447 | relative viability ([4]; first compound 2 µM): 0.414 | relative viability ([5]; first compound 0.02 µM): 0.218 | relative viability ([5]; first compound 0.2 µM): 0.209 | relative viability ([5]; first compound 0.6325 µM): 0.199 | relative viability ([5]; first compound 2 µM): 0.186 | relative viability ([6]; first compound 0.02 µM): 0.985 | relative viability ([6]; first compound 0.2 µM): 0.755 | relative viability ([6]; first compound 0.6325 µM): 0.907 | relative viability ([6]; first compound 2 µM): 0.888

Cc1cn(-c2cc(NC(=O)c3ccc(C)c(Nc4nccc(-c5cccnc5)n4)c3)cc(C(F)(F)F)c2)cn1 [Nilotinib] + N=C(N)NC(=N)NCCc1ccccc1 [Phenformin] (partner 250 µM)
relative viability ([1]; first compound 0.001 µM): 0.346 | relative viability ([1]; first compound 0.003162 µM): 0.392 | relative viability ([1]; first compound 0.01 µM): 0.437 | relative viability ([1]; first compound 0.03162 µM): 0.308 | relative viability ([1]; first compound 0.1 µM): 0.356 | relative viability ([2]; first compound 0.001 µM): 0.554 | relative viability ([2]; first compound 0.003162 µM): 0.563 | relative viability ([2]; first compound 0.01 µM): 0.701 | relative viability ([2]; first compound 0.03162 µM): 0.436 | relative viability ([2]; first compound 0.1 µM): 0.47 | relative viability ([7]; first compound 0.001 µM): 0.147 | relative viability ([7]; first compound 0.003162 µM): 0.27 | relative viability ([7]; first compound 0.01 µM): 0.274 | relative viability ([7]; first compound 0.03162 µM): 0.172 | relative viability ([7]; first compound 0.1 µM): 0.14 | relative viability ([3]; first compound 0.001 µM): 0.578 | relative viability ([3]; first compound 0.003162 µM): 0.585 | relative viability ([3]; first compound 0.01 µM): 0.605 | relative viability ([3]; first compound 0.03162 µM): 0.566 | relative viability ([3]; first compound 0.1 µM): 0.601 | relative viability ([4]; first compound 0.001 µM): 0.589 | relative viability ([4]; first compound 0.003162 µM): 0.616 | relative viability ([4]; first compound 0.01 µM): 0.564 | relative viability ([4]; first compound 0.03162 µM): 0.534 | relative viability ([4]; first compound 0.1 µM): 0.486 | relative viability ([5]; first compound 0.001 µM): 0.441 | relative viability ([5]; first compound 0.003162 µM): 0.367 | relative viability ([5]; first compound 0.01 µM): 0.337 | relative viability ([5]; first compound 0.03162 µM): 0.22 | relative viability ([5]; first compound 0.1 µM): 0.314

CN1CCN(CCOc2cc(OC3CCOCC3)c3c(Nc4c(Cl)ccc5c4OCO5)ncnc3c2)CC1 [Saracatinib] + N=C(N)NC(=N)NCCc1ccccc1 [Phenformin] (partner 250 µM)
relative viability ([1]; first compound 0.02 µM): 0.414 | relative viability ([1]; first compound 0.2 µM): 0.258 | relative viability ([1]; first compound 0.6325 µM): 0.388 | relative viability ([1]; first compound 2 µM): 0.3 | relative viability ([2]; first compound 0.02 µM): 0.608 | relative viability ([2]; first compound 0.2 µM): 0.639 | relative viability ([2]; first compound 0.6325 µM): 0.595 | relative viability ([2]; first compound 2 µM): 0.506 | relative viability ([7]; first compound 0.02 µM): 0.161 | relative viability ([7]; first compound 0.2 µM): 0.121 | relative viability ([7]; first compound 0.6325 µM): 0.156 | relative viability ([7]; first compound 2 µM): 0.154 | relative viability ([3]; first compound 0.02 µM): 0.619 | relative viability ([3]; first compound 0.2 µM): 0.53 | relative viability ([3]; first compound 0.6325 µM): 0.297 | relative viability ([3]; first compound 2 µM): 0.395 | relative viability ([4]; first compound 0.02 µM): 0.665 | relative viability ([4]; first compound 0.2 µM): 0.484 | relative viability ([4]; first compound 0.6325 µM): 0.597 | relative viability ([4]; first compound 2 µM): 0.478 | relative viability ([5]; first compound 0.02 µM): 0.545 | relative viability ([5]; first compound 0.2 µM): 0.368 | relative viability ([5]; first compound 0.6325 µM): 0.313 | relative viability ([5]; first compound 2 µM): 0.314 | relative viability ([6]; first compound 0.02 µM): 0.352 | relative viability ([6]; first compound 0.2 µM): 0.273 | relative viability ([6]; first compound 0.6325 µM): 0.281 | relative viability ([6]; first compound 2 µM): 0.285

CN1CCN(CCOc2cc(OC3CCOCC3)c3c(Nc4c(Cl)ccc5c4OCO5)ncnc3c2)CC1 [Saracatinib] + Cc1nc(Nc2ncc(C(=O)Nc3c(C)cccc3Cl)s2)cc(N2CCN(CCO)CC2)n1 [Dasatinib] (partner 0.075 µM)
relative viability ([1]; first compound 0.02 µM): 0.565 | relative viability ([1]; first compound 0.2 µM): 0.37 | relative viability ([1]; first compound 0.6325 µM): 0.439 | relative viability ([1]; first compound 2 µM): 0.406 | relative viability ([2]; first compound 0.02 µM): 0.593 | relative viability ([2]; first compound 0.2 µM): 0.451 | relative viability ([2]; first compound 0.6325 µM): 0.47 | relative viability ([2]; first compound 2 µM): 0.294 | relative viability ([3]; first compound 0.02 µM): 0.562 | relative viability ([3]; first compound 0.2 µM): 0.416 | relative viability ([3]; first compound 0.6325 µM): 0.468 | relative viability ([3]; first compound 2 µM): 0.406 | relative viability ([4]; first compound 0.02 µM): 0.422 | relative viability ([4]; first compound 0.2 µM): 0.318 | relative viability ([4]; first compound 0.6325 µM): 0.439 | relative viability ([4]; first compound 2 µM): 0.404 | relative viability ([5]; first compound 0.02 µM): 0.275 | relative viability ([5]; first compound 0.2 µM): 0.288 | relative viability ([5]; first compound 0.6325 µM): 0.345 | relative viability ([5]; first compound 2 µM): 0.376 | relative viability ([6]; first compound 0.02 µM): 0.658 | relative viability ([6]; first compound 0.2 µM): 0.652 | relative viability ([6]; first compound 0.6325 µM): 0.691 | relative viability ([6]; first compound 2 µM): 0.777
